According to US20240398844A1, “PHENYLCOUMARINS FOR TREATING INFLAMMATION” (Ohio State Innovation Foundation, priority 2021, published 2024):

Legend:
[1] = Solubility in NMR solvents; assay type: physicochemical; conditions: CD3OD
Experimental: Solubility of the fractions was a challenge, and chloroform-d (CDCl3), […], methanol-d4 (CD3OD), dimethyl sulfoxide-d6, and water-d2 (D2O) (Cambridge Isotope Laboratories, Tewksbury, MA, USA) were all tried as solvents. […] Since there was only 1.5 mg of material, further purification and structure elucidation were not pursued.
Fraction 3 was most soluble in D2O, and at approximately 11 mg/mL, ^1H and ^13C NMR data were obtained in an effort to confirm the presence of an isopropyl ether derivative (40). However, solubility of fraction 3 continued to be problematic even in D2O. Further acquisition attempts with increased probe temperature (310 K) were no more successful at keeping the compound (40) in solution.

[2] = system: GLUT-4; assay: Diabetic zebrafish Western blot, GLUT-4 expression; assay type: in vivo; conditions: 10 μM, FIG. 5
Experimental: Alloxan-induced diabetic zebrafish were treated with compounds for immunoblot to validate the newly developed animal model, determine the antidiabetic potential of natural product leads, evaluate glucose metabolism, and discover possible mechanisms of action.
At 72 hpf, naturally dechorionated zebrafish were sorted into a 24-well microplate with 10 fish per well. Type 2 diabetes was induced with the diabetogenic agent alloxan at a dose of 0.5 mg/mL in system water for 3 hours. The incubation solution was changed to 0.01% DMSO in system water with compounds at concentrations of 20 μg/mL or […], respectively. After 3 hours of treatment with natural product samples, 10 mg/mL D-glucose was administered in system water for 30 minutes, followed by 1 hour in fresh system water to metabolize the glucose and natural product leads. Upon completion of the 4-phase treatment cycle, zebrafish treatment groups were snap frozen into individual microcentrifuge tubes on dry ice, stored overnight at −80° C., thawed, homogenized with 2 μL PBS per animal, and centrifuged at 4° C. for 1 hour at 17,000 rpm. Protein content of homogenate supernatant was determined using the Pierce BCA Protein Assay kit (Pierce Biotechnology) and bovine serum albumin (BSA) standard curve. Absorbance of protein solutions from zebrafish homogenates and serial dilutions of the BSA standard were measured at 544 nm, using a FLUOstar Optima plate reader (BMG Labtechnologies GmbH, Inc.). Homogenates were analyzed by Western blot. Equal amounts of protein (20 μg) were combined with 4× lithium dodecyl sulphate (LDS) loading buffer (NuPAGE, Life Technologies, Carlsbad, CA, USA), brought to volume (15 μL) with PBS, and heated to 95° C. for 5 minutes. […]
Electrophoresis was performed using NuPAGE MES SDS Running Buffer and XCell SureLock Mini-Cell Electrophoresis System (Life Technologies). […] Conjugated antibodies were detected using SuperSignal West Femto chemiluminescent substrate from Pierce Biotechnology. […] Band density was quantified for proteins of interest using ImageJ Gel Analysis. […]

solubility (relative) [1] | Compound | GLUT-4 expression (Western blot) [2]
even less soluble than 24 | COc1cc(O[C@@H]2OCC(O)(CO[C@@H]3OC(CO)[C@@H](O)C(O)C3O)C2O)c2c(-c3ccc(OC(C)C)c(O)c3)cc(=O)oc2c1 (single isomer, unassigned) [Compound 40] | 
 | COc1cc(O[C@@H]2O[C@H](CO[C@@H]3OCC(O)(CO)[C@H]3O)[C@@H](O)[C@H](O)[C@H]2O)c2c(-c3ccc(O)c(O)c3)cc(=O)oc2c1 (stereo partly drawn) [Compound 24, 5-O-[β-D-apiofuranosyl-(1→6)-β-D-glucopyranosyl]-7-methoxy-3′,4′-dihydroxy-4-phenylcoumarin] | strong GLUT-4 expression
